Data as given in patent US20250032454A1, “KDM1A INHIBITORS FOR THE TREATMENT OF DISEASE” (Imago Biosciences, Inc., priority 2021, published 2025).

test system: MV4;11 cells; experiment: Cell Titer-Glo cell growth inhibition in MV4;11 cell line (Day 5 / Day 10); format: cell-based; settings: Homo sapiens, MV4-11, 120 h, Day 5, read-out: Cell Titer-Glo IC50 (5 d)
Procedure: Cell growth inhibition against MV4;11 cells was confirmed for the synthetic compounds. The Cell Titer-Glo Luminescent Cell Viability Assay (Promega, USA) was used to determine the number of viable cells in culture based on quantitation of the ATP present, which signals the presence of metabolically active cells. This assay was run in a 96-well plate format arrayed in a 10-point dose curve, ranging from 0 to 50 µM with 4-fold dilutions for each compound. Cells are seeded on Day 0 at 3750 cells per well. At Day 5, a portion of each well is assayed for viability according to the Cell Titer-Glo protocol. Briefly, cells/plates were centrifuged at 1100×g for 5 minutes. 100 μL of media was removed from each well and replaced with 100 μL of CellTiter-Glo. The plates were shaken at room temperature for 10 minutes and measured on a luminescence plate reader. Another portion of each well from the Day 5 plate is used to seed a new 96 plate containing fresh compound and media set up in the equivalent 10-point dose curve array in order to continue the cell growth inhibition assay for another 5 days. A final timepoint is collected at Day 10 using the Cell Titer-Glo protocol. Luminescence was detected on an En Vision® Multilabel Plate Reader (Perkin Elmer, Waltham, Mass.) and IC50 determination was made using Graph Pad Prism software.

Row | SMILES | IC50 [nM]
1 | N#Cc1ccc(-c2cc(NCC3CCC[C@H](N)C3)nn2-c2ccc3nn(-c4ccncc4)cc3c2)cc1F (stereo partly drawn) [Example 75, 4-(3-((((15,3S)-3-aminocyclohexyl)methyl)amino)-1-(2-(pyridin-4-yl)-2H-indazol-5-yl)-1H-pyrazol-5-yl)-2-fluorobenzonitrile] | 500 to 1000

same assay, conditions: Homo sapiens, MV4-11, 240 h, Day 10, read-out: Cell Titer-Glo IC50 (10 d)

Row | SMILES | IC50 [nM]
2 | N#Cc1ccc(-c2cc(NCC3CCC[C@H](N)C3)nn2-c2ccc3nn(-c4ccncc4)cc3c2)cc1F (stereo partly drawn) [Example 75, 4-(3-((((15,3S)-3-aminocyclohexyl)methyl)amino)-1-(2-(pyridin-4-yl)-2H-indazol-5-yl)-1H-pyrazol-5-yl)-2-fluorobenzonitrile] | < 500

target: LSD1 (Homo sapiens, UniProt O60341); experiment: LSD1 fluorescence coupling enzyme assay (HRP/Amplex Red, H3(1-21)K4me2 peptide), 10-dose IC50; format: biochemical; settings: 10 μM histone H3(1-21)K4me2 peptide substrate, 3-fold serial dilution from 100 μM
Description: Assaying the inhibition of KDM1A can be determined in vitro, in cultured cells, and in animals. There are a variety of spectrophotometric methods to detect the results of demethylation of methylated lysines, viz., detecting the products of KDM1A demethylase oxidative activity on a peptide fragment of at least 18 amino acids representing the N-terminus of the histone H3 substrate that contains a monomethyl at the fourth lysine residue. Hydrogen peroxide, one product of the KDM1A demethylase reaction, reacts with horseradish peroxidase and dihydroxyphenoxazine (ADHP) to produce the fluorescent compound resorufin (excitation=530-560 nm: emission=590 nm). The KDM1A demethylase enzyme activity can be obtained from mammalian cells or tissues expressing KDM1A from an endogenous or recombinant gene and purified or assayed from a whole cell extract. These methods can be used to determine the concentration of the disclosed compounds can inhibit fifty percent of the enzyme activity (IC50).
Alternatively, the production of H2O2 during the KDM1A reaction can be detected fluometrically. In this system, the production of H2O2 is detected in the HDM assay buffer after exposure to substrate, co-factor and enzyme using ADHP (10-Acetyl-3, 7-dihydroxyphenoxazine) as a fluorogenic substrate for horse radish peroxidase (HRP). […] The florescent product is resorufin. Sensitivity can be as low as 10-15 M of target protein. The signal is read using a fluorescence microplate reader at excitation and emission wavelengths of 530-560 nm and 590 nm, respectively.
Compounds were tested in a 10-dose IC50 mode fluorescence coupling enzyme assay with 3-fold serial dilution in duplicate starting at 100 μM. The production of FAD-dependent H2O2 as a result of demethylase activity of LSD1 on 10 μM histone H3(1-21)K4me2 peptide substrate was measured by coupling with HRP and Amplex Red to yield resorufin (fluorescence measured at Ex/Em=535/590 nm on EnVision, Perkin Elmer).

Row | IC50 [nM] | SMILES
3 | < 500 | N#Cc1ccc(-c2cc(NC[C@H]3CCC[C@H](N)C3)nn2-c2ccc(N3CCC(O)CC3)cc2)cc1F [Example 89, 4-(3-((((1S,3S)-3-aminocyclohexyl)methyl)amino)-1-(4-(4-hydroxypiperidin-1-yl)phenyl)-1H-pyrazol-5-yl)-2-fluorobenzonitrile]
4 | < 500 | N#Cc1ccc(-c2cc(NC[C@H]3CCC[C@H](N)C3)nn2-c2ccc(N3CCC4(CCCO4)CC3)cc2)cc1F [Example 95, 4-(1-(4-(1-Oxa-8-azaspiro[4.5]decan-8-yl)phenyl)-3-((((1S,3S)-3-aminocyclohexyl)methyl)amino)-1H-pyrazol-5-yl)-2-fluorobenzonitrile 2,2,2-trifluoroacetate]
5 | < 500 | N#Cc1ccc(-c2cc(NC[C@H]3CCC[C@H](N)C3)nn2-c2ccc(N3CCOCC3)cc2)cc1F [Example 96, 4-(3-((((1S,3S)-3-aminocyclohexyl)methyl)amino)-1-(4-morpholinophenyl)-1H-pyrazol-5-yl)-2-fluorobenzonitrile 2,2,2-trifluoroacetate]
6 | < 500 | CCOC1CCN(c2ccc(-n3nc(NC[C@H]4CCC[C@H](N)C4)cc3-c3ccc(C#N)c(F)c3)cc2)CC1 [Example 97, 4-(3-((((1S,3S)-3-aminocyclohexyl)methyl)amino)-1-(4-(4-ethoxypiperidin-1-yl)phenyl)-1H-pyrazol-5-yl)-2-fluorobenzonitrile 2,2,2-trifluoroacetate]
7 | < 500 | CO[C@H]1CCCN(c2ccc(-n3nc(NC[C@H]4CCC[C@H](N)C4)cc3-c3ccc(C#N)c(F)c3)cc2)C1 [Example 98, 4-(3-((((1S,3S)-3-aminocyclohexyl)methyl)amino)-1-(4-((S)-3-methoxypiperidin-1-yl)phenyl)-1H-pyrazol-5-yl)-2-fluorobenzonitrile 2,2,2-trifluoroacetate]
8 | < 500 | N#Cc1ccc(-c2cc(NC[C@H]3CCC[C@H](N)C3)nn2-c2ccc(N3CCSCC3)cc2)cc1F [Example 99, 4-(3-((((1S,3S)-3-aminocyclohexyl)methyl)amino)-1-(4-thiomorpholinophenyl)-1H-pyrazol-5-yl)-2-fluorobenzonitrile]
9 | < 500 | N#Cc1ccc(-c2cc(NC[C@@H]3CCC[C@@H](N)C3)nn2-c2ccc(N3CCSCC3)cc2)cc1F [Example 100, 4-(3-((((1R,3R)-3-aminocyclohexyl)methyl)amino)-1-(4-thiomorpholinophenyl)-1H-pyrazol-5-yl)-2-fluorobenzonitrile]
10 | < 500 | CC1(O)CCN(c2ccc(-n3nc(NC[C@H]4CCC[C@H](N)C4)cc3-c3ccc(C#N)c(F)c3)cc2)CC1 [Example 101, 4-(3-((((1S,3S)-3-aminocyclohexyl)methyl)amino)-1-(4-(4-hydroxy-4-methylpiperidin-1-yl)phenyl)-1H-pyrazol-5-yl)-2-fluorobenzonitrile 2,2,2-trifluoroacetate]
11 | < 500 | COC1(C)CCN(c2ccc(-n3nc(NC[C@H]4CCC[C@H](N)C4)cc3-c3ccc(C#N)c(F)c3)cc2)CC1 [Example 102, 4-(3-((((1S,3S)-3-aminocyclohexyl)methyl)amino)-1-(4-(4-methoxy-4-methylpiperidin-1-yl)phenyl)-1H-pyrazol-5-yl)-2-fluorobenzonitrile 2,2,2-trifluoroacetate]
12 | < 500 | N#Cc1ccc(-c2cc(NC[C@H]3CCC[C@H](N)C3)nn2-c2ccc(N3CCC(C#N)CC3)cc2)cc1F [Example 103, 1-(4-(3-((((1S,3S)-3-aminocyclohexyl)methyl)amino)-5-(4-cyano-3-fluorophenyl)-1H-pyrazol-1-yl)phenyl)piperidine-4-carbonitrile 2,2,2-trifluoroacetate]
13 | < 500 | N#Cc1ccc(-c2cc(NC[C@H]3CCC[C@H](N)C3)nn2-c2ccc(N3CCNC(=O)C3)cc2)cc1F [Example 104, 4-(3-((((1S,3S)-3-aminocyclohexyl)methyl)amino)-1-(4-(3-oxopiperazin-1-yl)phenyl)-1H-pyrazol-5-yl)-2-fluorobenzonitrile]
14 | 1000 to 10000 | CN1CCN(c2ccc(-n3nc(NC[C@H]4CCC[C@H](N)C4)cc3-c3ccc(C#N)c(F)c3)cc2)CC1=O [Example 105, 4-(3-((((1S,3S)-3-aminocyclohexyl)methyl)amino)-1-(4-(4-methyl-3-oxopiperazin-1-yl)phenyl)-1H-pyrazol-5-yl)-2-fluorobenzonitrile]

Second part, the molecule before the results:

Row | SMILES | IC50 [nM]
15 | COc1ccc(-n2nc(NC[C@@H]3CCCNC3)cc2-c2ccc(C#N)c(F)c2)cc1 [Example 3R, (R)-2-fluoro-4-(1-(4-methoxyphenyl)-3-((piperidin-3-ylmethyl)amino)-1H-pyrazol-5-yl)benzonitrile] | < 500
16 | COc1ccc(-n2nc(NC[C@H]3CCCNC3)cc2-c2ccc(C#N)c(F)c2)cc1 [Example 3S, (S)-2-fluoro-4-(1-(4-methoxyphenyl)-3-((piperidin-3-ylmethyl)amino)-1H-pyrazol-5-yl)benzonitrile] | < 500
17 | COc1ccc(-n2nc(NC[C@@H]3CCC[C@H](CN)C3)cc2-c2ccc(C#N)c(F)c2)cc1 [Example 79, 4-(3-((((1R,3S)-3-(aminomethyl)cyclohexyl)methyl)amino)-1-(4-methoxyphenyl)-1H-pyrazol-5-yl)-2-fluorobenzonitrile] | 1000 to 10000
18 | COc1ccc(-n2nc(NC[C@H]3CCC[C@H](CN)C3)cc2-c2ccc(C#N)c(F)c2)cc1 [Example 80, 4-(3-((((15,3S)-3-(aminomethyl)cyclohexyl)methyl)amino)-1-(4-methoxyphenyl)-1H-pyrazol-5-yl)-2-fluorobenzonitrile] | 500 to 1000
19 | N#Cc1ccc(-c2cc(NCC3CCCNCC3)nn2-c2ccc(N3CC[S+]([O-])CC3)cc2)cc1F (centres unmarked) [Example 90, 4-(3-((Azepan-4-ylmethyl)amino)-1-(4-(1-oxidothiomorpholino)phenyl)-1H-pyrazol-5-yl)-2-fluorobenzonitrile 2,2,2-trifluoroacetate] | < 500
20 | N#Cc1ccc(-c2cc(NC[C@@H]3CCCNCC3)nn2-c2ccc(N3CC[S+]([O-])CC3)cc2)cc1F [Example 91, (R)-4-(3-((azepan-4-ylmethyl)amino)-1-(4-(1-oxidothiomorpholino)phenyl)-1H-pyrazol-5-yl)-2-fluorobenzonitrile 2,2,2-trifluoroacetate] | < 500
21 | COC1CCN(c2ccc(-n3nc(NC[C@H]4CCC[C@H](N)C4)cc3-c3ccc(C#N)c(F)c3)c(F)c2)CC1 [Example 92, 4-(3-((((1S,3S)-3-aminocyclohexyl)methyl)amino)-1-(2-fluoro-4-(4-methoxypiperidin-1-yl)phenyl)-1H-pyrazol-5-yl)-2-fluorobenzonitrile 2,2,2-trifluoroacetate] | < 500
22 | CN(c1ccc(-n2nc(NC[C@H]3CCC[C@H](N)C3)cc2-c2ccc(C#N)c(F)c2)cc1)C1CCOCC1 [Example 93, 4-(3-((((1S,3S)-3-aminocyclohexyl)methyl)amino)-1-(4-(methyl(tetrahydro-2H-pyran-4-yl)amino)phenyl)-1H-pyrazol-5-yl)-2-fluorobenzonitrile 2,2,2-trifluoroacetate] | < 500
23 | CC(C)OC1CCN(c2ccc(-n3nc(NC[C@H]4CCC[C@H](N)C4)cc3-c3ccc(C#N)c(F)c3)cc2)CC1 [Example 94, 4-(3-((((1S,3S)-3-aminocyclohexyl)methyl)amino)-1-(4-(4-isopropoxypiperidin-1-yl)phenyl)-1H-pyrazol-5-yl)-2-fluorobenzonitrile 2,2,2-trifluoroacetate] | < 500
